Laboratory results reported in patent US20240043386A1, “Modulators of the Cystic Fibrosis Transmembrane Conductance Regulator Protein and Methods of Use” (AbbVie Global Enterprises Ltd., priority 2021, published 2024).
Like-named read-outs stand apart in the source and are kept apart here.

What was measured:
F508del/F508del CFTR = target: T1, F508del/F508del CFTR (Homo sapiens, UniProt P13569, DEL508-508); assay: Trans-Epithelial Current Clamp (TECC) assay using primary human bronchial epithelial cells; type: cell-based; details: for Emax (% Dual): maximum percent activity relative to positive control (co-corrector 0.15 μM + potentiator 0.45 μM = 100%), primary hBE cells F508del/F508del; for EC50: primary hBE cells homozygous F508del/F508del, test C2 corrector with co-corrector and potentiator, 18-24 hours at 37° C., equivalent CFTR current (IEQ)/AUC
T1 construct: cells isolated from CF patients with the homozygous mutation; endogenous in cells; host or cells: primary human bronchial epithelial (hBE) cells from CF patients homozygous for F508del
Excerpt: A cell-based assay was developed using the primary human bronchial epithelial cells (hBE cells) with F508del/F508del CFTR and other mutations.
Primary human bronchial epithelial (hBE) cells from CFTR patients with homozygous F508del/F508del mutation were expanded from 1×10^6 to 250×10^6 cells (Neuberger, T et al., 2011, Methods Mol Biol 741:39-54). For this purpose, cells isolated from CF patients with the homozygous mutation, procured from the CF center tissue procurement and cell culture core at the Marsico Lung Institute at UNC (Randell), the Cystic Fibrosis translational research center at McGill University (University), and Rosalind Franklin University Medical School (RFUMS) were seeded onto 24 well Corning (Cat #3378) filter plates that were coated with 3T3 conditioned media and grown at an air-liquid interface for 35 days using an Ultroser® G supplemented differentiation media. All the primary human bronchial epithelial cells were collected in accordance with institutional review board approval protocols. Apical surface mucus was removed 72 hours before the experiment by incubating the apical surface of the cells for 30 minutes with 3 mM dithiothreitol (DTT) prepared in Dulbecco's phosphate buffered saline (DPBS) with Ca^2+ and Mg^2+. This was followed with aspiration of the mucus from the apical surface along with DPBS. The apical surface was re-washed with phosphate buffered saline (PBS) incubated for 30 minutes followed with aspiration. These hBE cells were then incubated with the desired concentrations of the test C2 corrector compounds along with co-corrector, 4-[(2R,4R)-4-({[1-(2,2-difluoro-1,3-benzodioxol-5-yl)cyclopropyl]carbonyl}amino)-7-(difluoromethoxy)-3,4-dihydro-2H-chromen-2-yl]benzoic acid and potentiator, (5-{3-amino-5-[4-(trifluoromethoxy)benzene-1-sulfonyl]pyridin-2-yl}-1,3,4-oxadiazol-2-yl)methanol, for 18-24 hours at 37° C., 5% CO2. The desired concentrations of the correctors and potentiator compounds were prepared from the 10 mM stocks in differentiation media and were always applied on the basolateral side of the epithelial cells. We also used an assay format where a fixed concentration of potentiator was added chronically along with the corrector compounds. This chronic treatment with the potentiator helped eliminate any interaction that might happen with CFTR modulators (correctors and potentiators) and thereby determined the true efficacy of the modulator combinations reflective of clinical relevance.
The assay uses a Transepithelial Current Clamp (TECC) (Vu, C B et al., 2017; J Med Chem 60:458-473) instrument that can measure the functionality of the mutated channel by measuring the equivalent CFTR current (IEQ) generated by the polarized primary epithelial cells. We used a TECC-24 with a 24-channel electrode manifold allowing for the simultaneous measurement of the transepithelial voltage, VT, and transepithelial resistance, RT, under current clamp conditions, from 24 filters using a 24 well Costar filter plate. The design of the filters in the 24 well filter plates was exactly the same as the design of an individual Transwell filter used in the classical Ussing Chamber with a surface area of 0.33 cm^2. Each measured VT values were corrected for the electrode offset potential measured using buffer alone in a separate plate, and each measured RT values were then corrected for the combined solution series and empty filter resistances. The corrected VT and RT values were then used to calculate the equivalent current, IEQ using Ohm's law (IEQ=VT/RT). The area under the curve (AUC) for the time period between the forskolin peak IEQ response and at the time of bumetanide addition was also calculated using a one-third trapezoid method, in addition to calculating the IEQ. The assay was run in a 24-well format and all 24-wells were measured at the same time point giving a higher throughput for this assay. […]

F508delCFTR = target: T2, F508delCFTR (Homo sapiens, UniProt P13569, DEL508-508); assay: Cell Surface Expression-Horse Radish Peroxidase (CSE-HRP) assay in CFBE41o-F508delCFTR-HRP cells; type: cell-based; details: for EC50: CFBE41o-F508delCFTR-HRP cells, 18-24 hours at 33° C., luminescence; for Maximum % activity (without co-corrector): normalized to on-plate positive control corrector (2 μM)
T2 construct: expressed in transfected cells; host or cells: CFBE41o- human lung-derived epithelial cell line, doxycycline-inducible expression
Method: A cellular assay for measuring the F508delCFTR cell surface expression after correction with test compounds either without or with a co-corrector (2 μM of 3-[(2R,4R)-4-({[1-(2,2-difluoro-1,3-benzodioxol-5-yl)cyclopropyl]carbonyl}amino)-7-methoxy-3,4-dihydro-2H-chromen-2-yl]benzoic acid), was developed in human lung derived epithelial cell line (CFBE4lo-) (Veit G et al, (2012) Mol Biol Cell. 23(21): 4188-4202). The development was achieved by expressing the F508delCFTR mutation along with a horseradish peroxidase (HRP) in the fourth exofacial loop, and then measuring the HRP activity using luminescence readout from these cells, CFBE4lo-F508delCFTR-HRP, that were incubated overnight with the test corrector compounds, either without or with the co-corrector. For this primary assay, the CFBE4lo-F508delCFTR-HRP cells were plated in 384-well plates (Greiner Bio-one; Cat 781080) at 4,000 cells/well along with 0.5 μg/mL doxycycline to induce the F508delCFTR-RP expression and further incubated at 37° C., 5% CO2 for 68-72 hours. The test compounds were then added either without or with a co-corrector at the required concentrations and further incubated for 18-24 hours at 33° C. The highest concentration tested was 20 μM or 30 μM (GI-1 to GIII-36) with an 8-point concentration response curve using a 3-fold dilution in both the test compound without or with the co-corrector. Three replicate plates were run to determine one EC50. All plates contained negative controls (dimethyl sulfoxide, DMSO) and positive control (2 μM or 3 μM (GI-1 to GIII-36) of 3-[(2R,4R)-4-({[1-(2,2-difluoro-1,3-benzodioxol-5-yl)cyclopropyl]carbonyl}amino)-7-methoxy-3,4-dihydro-2H-chromen-2-yl]benzoic acid) as well as on-plate concentration response of the positive control. Post incubation, the plates were washed 5× times with Dulbecco's phosphate buffered saline (DPBS), followed by the addition of the HRP substrate, luminol (50 μL), and measuring the HRP activity using luminescence readout on EnVision® Multilabel Plate Reader (Perkin Elmer; product number 2104-0010). The raw counts from the experiment were analyzed using Accelrys® Assay Explorer v3.3.
Z′ greater than 0.5 was used as passing quality control criteria for the plates. The Z′ is defined as:
1−[3*SDPositive Control+3*SDNegative Control/Absolute (MeanPositive Control−MeanNegative Control)]
The % activity measured at each of the 8 test concentrations of the test compound added either without or with a co-corrector (2 μM or 3 μM (GI-1 to GIII-36) of 3-[(2R,4R)-4-({[1-(2,2-difluoro-1,3-benzodioxol-5-yl)cyclopropyl]carbonyl}amino)-7-methoxy-3,4-dihydro-2H-chromen-2-yl]benzoic acid) was normalized to the on-plate positive control using the following formulae:
% activity (Test compound without co-corrector)=[(test compound without co-corrector response−DMSO response)/(positive control response−DMSO response)]*100
% activity (Test compound with co-corrector)=[(test compound with co-corrector response−DMSO response)/(positive control response−DMSO response)]*100
The maximum % activity achieved for the test compound either without or with a co-corrector at any tested concentration is presented in Table 3 along with the respective EC50's calculated using the following general sigmoidal curve with variable Hill slope equation (described as Model 42 in the Accelrys® Assay Explorer v3.3 software):
General sigmoidal curve with concentration, response, top, bottom, EC50 and Hill slope. This model describes a sigmoidal curve with an adjustable baseline, a. The equation can be used to fit curves where response is either increasing or decreasing with respect to the independent variable, “x”.

[1] = with co-corrector (2 μM), read-out: EC50 (with co-corrector)
[2] = without co-corrector, read-out: EC50 (without co-corrector)

T1 sequence (P13569 with tags, fused parts or gaps DEL508-508): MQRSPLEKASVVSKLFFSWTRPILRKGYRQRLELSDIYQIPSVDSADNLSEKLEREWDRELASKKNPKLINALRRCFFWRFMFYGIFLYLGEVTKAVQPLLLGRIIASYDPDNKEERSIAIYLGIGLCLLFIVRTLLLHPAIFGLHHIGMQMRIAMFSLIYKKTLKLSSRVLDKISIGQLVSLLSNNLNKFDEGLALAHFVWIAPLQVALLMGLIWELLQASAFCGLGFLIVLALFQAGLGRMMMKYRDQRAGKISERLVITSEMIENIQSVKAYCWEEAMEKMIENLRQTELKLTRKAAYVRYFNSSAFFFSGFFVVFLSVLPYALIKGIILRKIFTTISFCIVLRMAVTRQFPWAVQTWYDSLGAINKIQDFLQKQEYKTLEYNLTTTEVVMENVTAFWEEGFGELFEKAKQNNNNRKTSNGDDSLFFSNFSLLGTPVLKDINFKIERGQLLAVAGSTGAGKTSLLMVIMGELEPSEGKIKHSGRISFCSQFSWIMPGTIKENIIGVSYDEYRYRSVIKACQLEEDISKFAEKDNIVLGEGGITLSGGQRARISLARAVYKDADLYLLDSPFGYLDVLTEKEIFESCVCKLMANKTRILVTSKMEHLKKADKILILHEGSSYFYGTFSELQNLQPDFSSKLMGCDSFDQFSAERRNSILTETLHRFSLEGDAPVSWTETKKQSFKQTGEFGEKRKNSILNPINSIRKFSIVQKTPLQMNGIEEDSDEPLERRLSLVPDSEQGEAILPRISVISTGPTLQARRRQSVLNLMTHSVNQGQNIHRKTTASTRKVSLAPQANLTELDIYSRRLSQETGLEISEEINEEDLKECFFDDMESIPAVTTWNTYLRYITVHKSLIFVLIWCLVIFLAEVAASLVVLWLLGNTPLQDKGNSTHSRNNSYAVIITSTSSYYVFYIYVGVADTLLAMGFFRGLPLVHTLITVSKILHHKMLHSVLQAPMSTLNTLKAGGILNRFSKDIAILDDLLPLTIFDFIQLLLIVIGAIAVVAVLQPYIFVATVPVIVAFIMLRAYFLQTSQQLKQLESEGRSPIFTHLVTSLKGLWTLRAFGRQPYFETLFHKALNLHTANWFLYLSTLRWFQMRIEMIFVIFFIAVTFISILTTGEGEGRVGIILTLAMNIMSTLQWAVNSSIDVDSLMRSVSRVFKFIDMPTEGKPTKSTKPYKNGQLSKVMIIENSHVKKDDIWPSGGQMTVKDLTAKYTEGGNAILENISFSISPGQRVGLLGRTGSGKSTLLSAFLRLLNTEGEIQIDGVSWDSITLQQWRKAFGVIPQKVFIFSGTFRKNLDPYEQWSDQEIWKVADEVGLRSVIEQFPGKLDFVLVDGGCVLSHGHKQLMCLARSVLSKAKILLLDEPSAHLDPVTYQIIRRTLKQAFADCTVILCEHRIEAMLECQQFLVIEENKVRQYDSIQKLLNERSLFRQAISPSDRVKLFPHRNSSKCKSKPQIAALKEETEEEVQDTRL
T2 sequence (P13569 with tags, fused parts or gaps DEL508-508): as above

| SMILES | Emax (% Dual) (F508del/F508del CFTR) | EC50 (F508del/F508del CFTR) [nM] | EC50 (F508delCFTR; [1]) [nM] | EC50 (F508delCFTR; [2]) [nM] | Maximum % activity (without co-corrector) (F508delCFTR; without co-corrector) [%] |
| --- | --- | --- | --- | --- | --- |
| COc1ccc(C)cc1[C@]1(C(=O)NS(=O)(=O)c2cccc3nc(C)ccc23)C[C@@H]1c1cccc(C(F)(F)F)c1 (racemic) [Example 12, rac-(1r,2s)-1-(2-methoxy-5-methylphenyl)-N-(2-methylquinoline-5-sulfonyl)-2-[3-(trifluoromethyl)phenyl]cyclopropane-1-carboxamide] | 407 | 0.51 | 327 | 479 | – |
| COc1ccc(C)cc1[C@]1(C(=O)NS(=O)(=O)c2cccc3nc(C)ccc23)C[C@@H]1c1cccc(C(C)C)n1 [Example 57, (1S,2S)-1-(2-methoxy-5-methylphenyl)-N-(2-methylquinoline-5-sulfonyl)-2-[6-(propan-2-yl)pyridin-2-yl]cyclopropane-1-carboxamide] | 253 | 19.2 | 510 | 1130 | – |
| COc1ccc(C)cc1[C@]1(C(=O)NS(=O)(=O)c2cccc3nc(C)ccc23)C[C@@H]1c1ccc(C)nc1OC (single isomer, unassigned) [Example 86] | 176 | 24.1 | 1440 | 2210 | – |
| COc1ccc([C@H]2C[C@@]2(C(=O)NS(=O)(=O)c2cccc3nc(C)ccc23)c2cc(C)ccc2OC)c(C)n1 [Example 72, (1S,2R)-1-(2-methoxy-5-methylphenyl)-2-(6-methoxy-2-methylpyridin-3-yl)-N-(2-methylquinoline-5-sulfonyl)cyclopropane-1-carboxamide] | 359 | 13.6 | 1540 | 3330 | 651 |
| COc1ccc(C)cc1[C@]1(C(=O)NS(=O)(=O)c2cccc3nc(C)ccc23)C[C@@H]1c1ccccc1C [Example 34, (1S,2R)-1-(2-methoxy-5-methylphenyl)-2-(2-methylphenyl)-N-(2-methylquinoline-5-sulfonyl)cyclopropane-1-carboxamide] | 459 | 2.9 | 385 | 783 | – |
| COc1ccc(C)cc1[C@]1(C(=O)NS(=O)(=O)c2cccc3nc(C)ccc23)C[C@@H]1c1cccc(N(C)C)n1 [Example 60, (1S,2S)-2-[6-(dimethylamino)pyridin-2-yl]-1-(2-methoxy-5-methylphenyl)-N-(2-methylquinoline-5-sulfonyl)cyclopropane-1-carboxamide] | 413 | 6.7 | 1030 | 2140 | – |
| COc1ccc(C)cc1[C@@]1(C(=O)NS(=O)(=O)c2cccc3nc(C)ccc23)C[C@H]1c1ccc(C(C)C)nc1OC (racemic) [Example 78, rac-(1r,2s)-1-(2-methoxy-5-methylphenyl)-2-[2-methoxy-6-(propan-2-yl)pyridin-3-yl]-N-(2-methylquinoline-5-sulfonyl)cyclopropane-1-carboxamide] | 282 | 30.3 | 364 | 825 | 825 |
| COc1ccc(C)cc1[C@]1(C(=O)NS(=O)(=O)c2cccc3nc(C)ccc23)C[C@@H]1c1cccc(C(F)F)n1 [Example 77, (1S,2S)-2-[6-(difluoromethyl)pyridin-2-yl]-1-(2-methoxy-5-methylphenyl)-N-(2-methylquinoline-5-sulfonyl)cyclopropane-1-carboxamide] | 289 | 0.4 | 327 | 1660 | – |
| COc1ccc(C)cc1[C@]1(C(=O)NS(=O)(=O)c2cccc3nc(C)ccc23)C[C@@H]1c1ccc(C)cc1 (single isomer, unassigned) [Example 7] | 487 | 0.8 | 926 | 1450 | – |
| COc1ccc([C@@H]2C[C@]2(C(=O)NS(=O)(=O)c2cccc3nc(C)ccc23)c2cc(C)ccc2OC)cc1 (racemic) [Example 9, rac-(1r,2s)-1-(2-methoxy-5-methylphenyl)-2-(4-methoxyphenyl)-N-(2-methylquinoline-5-sulfonyl)cyclopropane-1-carboxamide] | 381 | 1.1 | – | 1670 | – |
| COc1ccc(C)cc1[C@@]1(C(=O)NS(=O)(=O)c2cccc3nc(C)ccc23)C[C@H]1c1cncc(F)c1 (racemic) [Example 42, rac-(1r,2s)-2-(5-fluoropyridin-3-yl)-1-(2-methoxy-5-methylphenyl)-N-(2-methylquinoline-5-sulfonyl)cyclopropane-1-carboxamide] | 127 | 182 | 1150 | 1850 | 690 |
